For this assay, the target named is T1, dopamine transporter (DAT) (Rattus norvegicus, UniProt P23977).
T1 construct: gene Slc6a3; native DAT in rat brain sections (nucleus accumbens shell and caudate-putamen)
The assay can be described thus: […]RTI-121 displacement, quantitative autoradiography on rat brain sections.

Each structure is given as a SMILES string.

What is called IC50 is the point on the concentration scale where inhibition reaches its midpoint. A lower IC50 goes with higher potency.

T1 sequence (P23977 whole entry): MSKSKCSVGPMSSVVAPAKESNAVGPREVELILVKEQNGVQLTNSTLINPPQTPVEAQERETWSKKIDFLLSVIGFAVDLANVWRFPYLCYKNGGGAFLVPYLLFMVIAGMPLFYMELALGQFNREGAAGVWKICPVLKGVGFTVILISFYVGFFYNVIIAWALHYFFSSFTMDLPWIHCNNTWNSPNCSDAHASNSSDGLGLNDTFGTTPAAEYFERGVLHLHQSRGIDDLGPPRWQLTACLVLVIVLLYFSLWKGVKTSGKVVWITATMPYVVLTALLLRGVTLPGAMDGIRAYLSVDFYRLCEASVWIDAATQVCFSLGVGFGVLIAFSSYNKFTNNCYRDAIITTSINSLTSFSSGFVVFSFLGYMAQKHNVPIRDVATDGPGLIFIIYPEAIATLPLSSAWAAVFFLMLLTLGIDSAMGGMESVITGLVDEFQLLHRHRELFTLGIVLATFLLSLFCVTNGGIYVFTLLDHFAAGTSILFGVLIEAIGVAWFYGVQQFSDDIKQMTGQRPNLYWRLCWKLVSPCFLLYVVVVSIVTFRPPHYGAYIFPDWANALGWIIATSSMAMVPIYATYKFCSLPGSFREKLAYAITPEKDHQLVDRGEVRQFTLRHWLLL

In the case of `c1ccc(C(c2ccccc2)C2CCCCN2)cc1` (stereo not shown) [2-DPMP, 2-diphenylmethylpiperidine], the IC50 came out at 565 nM.

Values taken from PMC7289955, “The Role of Dopamine in the Stimulant Characteristics of Novel Psychoactive Substances (NPS)—Neurobiological and Computational Assessment Using the Case of Desoxypipradrol (2-DPMP)” (Frontiers in Pharmacology, 2020).
